Test results reported in patent US20260374739A1, “SMALL MOLECULAR WEIGHT CHEMICAL COMPOUND TO ANTAGONIZE EPH-EPHRIN TETRAMERIZATION AND INHIBIT BIDIRECTIONAL SIGNALING” (THE BOARD OF REGENTS OF THE UNIVERSITY OF TEXAS SYSTEM, priority 2022, published 2026).

molecular target: T1, EphB2-EphrinB2 (Mus musculus, UniProt P54763); assay: Octet, immobilized mouse EphB2 binding to mouse EphrinB2; settings: 100 μM
T1 sequence (P54763 19-543 limits assumed): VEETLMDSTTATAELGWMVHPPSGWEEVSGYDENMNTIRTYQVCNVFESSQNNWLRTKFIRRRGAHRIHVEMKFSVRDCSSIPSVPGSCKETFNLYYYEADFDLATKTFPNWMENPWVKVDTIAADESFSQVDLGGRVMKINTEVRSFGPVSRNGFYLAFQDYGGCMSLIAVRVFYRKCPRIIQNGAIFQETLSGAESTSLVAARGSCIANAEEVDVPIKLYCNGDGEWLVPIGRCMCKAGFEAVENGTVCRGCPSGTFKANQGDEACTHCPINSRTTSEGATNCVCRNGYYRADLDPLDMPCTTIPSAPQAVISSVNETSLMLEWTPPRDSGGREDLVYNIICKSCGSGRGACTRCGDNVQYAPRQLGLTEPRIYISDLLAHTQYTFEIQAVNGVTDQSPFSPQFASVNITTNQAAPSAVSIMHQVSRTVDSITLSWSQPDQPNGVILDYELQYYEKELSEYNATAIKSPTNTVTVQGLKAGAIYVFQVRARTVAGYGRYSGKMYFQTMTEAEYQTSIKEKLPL
Description: (§1) The novel compound A20-I is a halogen replacement that changes the 7-bromine in A20 for iodine and had enhanced tetramerization inhibitor activity (FIGS. 38A-38D). This is evident when comparing results of A20-I and A20 salt compounds on the interaction of immobilized mouse EphB2 ectodomain binding to soluble mouse EphrinB2 ectodomain (FIG. 38A and FIG. 38B) or soluble human EphrinA5 (FIG. 38C). […] During these interactions of immobilized EphB ectodomains binding to soluble EphrinB2, the tetramer is much more surmountable by addition of an active compound than for the reverse experiment where EphrinB2 is immobilized and EphB2 is the soluble component in the assay (see FIG. 11, FIG. 17, and FIG. 25A-FIG. 25C). It is believed that the more resistant unsurmountable tetramer formed by immobilized EphrinB2 binding to soluble EphB ectodomains provides for the most rigorous test for determining IC50 values and thus utilizing this EphrinB2-EphB2 assay for analysis of all compounds, provide uniformity in observed results. The results described herein with A20-I and using the human EphrinB2-EphB2 interaction indicates replacements can be made in the 7-bromine in A20 that lead to enhanced tetramerization inhibitor activity.

Q: With `Oc1c(I)cc(CN2CCOCC2)c2cccnc12` [Compound 7, 7-iodo-5-(morpholinomethyl)quinolin-8-ol] as the compound, how does the “elimination of tetramer” value read?
A: eliminated all tetramer species

same assay, conditions: Absolute Association IC50, mEphB2-mEphrinB2; immobilized mouse EphB2; 50 nM soluble mouse EphrinB2; association; absolute

Q: For `Oc1c(Cl)cc(CN2CCOCC2)c2cccnc12` [Compound 4, 4-((7-chloro-8-hydroxyquinolin-1-ium-5-yl)methyl)morpholin-4-ium chloride], which IC50 is on record?
A: 4.29 µM

Q: `Oc1ccc(CN2CCN(Cc3ccc(C(F)(F)F)cc3)CC2)c2cccnc12` [Compound 48, 5-((4-(4-(trifluoromethyl)benzyl)piperazin-1-yl)methyl)quinolin-8-ol] was tested. Which IC50 did it give?
A: 100 µM

Q: Which IC50 does the source give for `Oc1ccc(CN2CCOCC2)c2cccnc12` [Compound 1, 5-(morpholinomethyl)quinolin-8-ol] here?
A: 100 µM

same assay, conditions: Absolute Dissociation IC50, mEphB2-mEphrinB2; immobilized mouse EphB2; 50 nM soluble mouse EphrinB2; dissociation; absolute

Q: For `Oc1c(Cl)cc(CN2CCOCC2)c2cccnc12` [Compound 4, 4-((7-chloro-8-hydroxyquinolin-1-ium-5-yl)methyl)morpholin-4-ium chloride], which IC50 is on record?
A: 0.9 µM

Q: `Oc1ccc(CN2CCN(Cc3ccc(C(F)(F)F)cc3)CC2)c2cccnc12` [Compound 48, 5-((4-(4-(trifluoromethyl)benzyl)piperazin-1-yl)methyl)quinolin-8-ol] was tested. Which IC50 did it give?
A: 8.12 µM

Q: For `Oc1ccc(CN2CCOCC2)c2cccnc12` [Compound 1, 5-(morpholinomethyl)quinolin-8-ol], which IC50 is on record?
A: 9.9 µM

same assay, conditions: Relative Association IC50, mEphB2-mEphrinB2; immobilized mouse EphB2; 50 nM soluble mouse EphrinB2; association; relative

Q: How did the IC50 turn out when `Oc1c(Cl)cc(CN2CCOCC2)c2cccnc12` [Compound 4, 4-((7-chloro-8-hydroxyquinolin-1-ium-5-yl)methyl)morpholin-4-ium chloride] was run?
A: 0.94 µM

Q: Which IC50 does the source give for `Oc1ccc(CN2CCN(Cc3ccc(C(F)(F)F)cc3)CC2)c2cccnc12` [Compound 48, 5-((4-(4-(trifluoromethyl)benzyl)piperazin-1-yl)methyl)quinolin-8-ol] here?
A: 12.1 µM

Q: For `Oc1ccc(CN2CCOCC2)c2cccnc12` [Compound 1, 5-(morpholinomethyl)quinolin-8-ol], which IC50 is on record?
A: 10.9 µM

same assay, conditions: Relative Dissociation IC50, mEphB2-mEphrinB2; immobilized mouse EphB2; 50 nM soluble mouse EphrinB2; dissociation; relative

Q: For `Oc1c(Cl)cc(CN2CCOCC2)c2cccnc12` [Compound 4, 4-((7-chloro-8-hydroxyquinolin-1-ium-5-yl)methyl)morpholin-4-ium chloride], which IC50 is on record?
A: 0.63 µM

Q: Which IC50 does the source give for `Oc1ccc(CN2CCN(Cc3ccc(C(F)(F)F)cc3)CC2)c2cccnc12` [Compound 48, 5-((4-(4-(trifluoromethyl)benzyl)piperazin-1-yl)methyl)quinolin-8-ol] here?
A: 2.12 µM

Q: Which IC50 does the source give for `Oc1ccc(CN2CCOCC2)c2cccnc12` [Compound 1, 5-(morpholinomethyl)quinolin-8-ol] here?
A: 0.9 µM

molecular target: T2, EphB2-EphrinA5 (Mus musculus, UniProt P54763); assay: Octet, immobilized EphB2 binding to human EphrinA5; settings: mEphB2-hEphrinA5; immobilized mouse EphB2; 50 nM soluble human EphrinA5; association; absolute; read-out: Absolute Association IC50
T2 sequence (P54763 19-543 limits assumed): T1 sequence (P54763 19-543 limits assumed)
Protocol: The Octet system was used to probe the interactions of epitope-tagged human A class proteins, focusing on immobilized EphA3 binding to two of its cognate ligands, EphrinA1 and EphrinA5, as well as EphB2 binding to EphrinA5 (FIG. 27). […] Focusing on the dimerization-driven EphA3-EA5 interaction first (green sensorgram trace), which mimics what is disclosed above for EphB4-EB2, the initial binding of soluble EphrinA5 to the immobilized EphA3 is very fast and strong with a long and steep 84° slope of response that then quickly bends around 35 sec into the association step to form a more gradual tetramerization accumulation slope. […] However, again like the EphB4-EB2 interaction, once placed into dissociation, a significant fraction of the bound EA5 protein melts quickly and the off phase continues downward with a slow gradual decline in bound protein. Although the dissociation was for only 500 sec, the continued downward slope of the response indicates most of the bound EA5 protein would eventually melt off of the immobilized EphA3 protein. This is referred to as a classic dimerization-driven interaction, fast and strong initial binding in the association step but with most of the bound protein coming off in the dissociation due to lack of formation of stable tetramers. EphA3 interacts with EphrinA1 with totally different kinetics/dynamics (orange sensorgram trace). Here, the initial high 84° dimerization slope phase is extremely brief (5 sec) with the binding quickly snapping into a linear tetramerization accumulation phase with a 25° slope, and that once placed into dissociation step almost no bound protein melts, just the small amount that would represent dimer interactions falling off in the first few seconds after being placed into dissociation. […] EphB2 interacting with EA5 is similar to the EphA3-EA1 interaction, in that the association step is characterized by a very brief (5 sec) high 84° slope phase that quickly bends into a more gradual tetramer accumulation phase (blue sensorgram trace). […] The strong initial off phase of the EphB2-EA5 complexes in the dissociation represents both the melting of weak dimers and of the relatively weaker affinity tetramers formed by the cross A/B class EphB2-EA5 molecules. […]
as §1

Q: For `Oc1c(Cl)cc(CN2CCOCC2)c2cccnc12` [Compound 4, 4-((7-chloro-8-hydroxyquinolin-1-ium-5-yl)methyl)morpholin-4-ium chloride], which IC50 is on record?
A: < 1 µM

Q: Which IC50 does the source give for `Oc1ccc(CN2CCN(Cc3ccc(C(F)(F)F)cc3)CC2)c2cccnc12` [Compound 48, 5-((4-(4-(trifluoromethyl)benzyl)piperazin-1-yl)methyl)quinolin-8-ol] here?
A: 8.24 µM

same assay, conditions: mEphB2-hEphrinA5; immobilized mouse EphB2; 50 nM soluble human EphrinA5; association; relative; read-out: Relative Association IC50

Q: With `Oc1c(Cl)cc(CN2CCOCC2)c2cccnc12` [Compound 4, 4-((7-chloro-8-hydroxyquinolin-1-ium-5-yl)methyl)morpholin-4-ium chloride] as the compound, how does the IC50 read?
A: < 1 µM

Q: With `Oc1ccc(CN2CCN(Cc3ccc(C(F)(F)F)cc3)CC2)c2cccnc12` [Compound 48, 5-((4-(4-(trifluoromethyl)benzyl)piperazin-1-yl)methyl)quinolin-8-ol] as the compound, how does the IC50 read?
A: > 1 µM

same assay, conditions: mEphB2-hEphrinA5; immobilized mouse EphB2; 50 nM soluble human EphrinA5; dissociation; absolute; read-out: Absolute Dissociation IC50

Q: With `Oc1c(Cl)cc(CN2CCOCC2)c2cccnc12` [Compound 4, 4-((7-chloro-8-hydroxyquinolin-1-ium-5-yl)methyl)morpholin-4-ium chloride] as the compound, how does the IC50 read?
A: < 1 µM

Q: How did the IC50 turn out when `Oc1ccc(CN2CCN(Cc3ccc(C(F)(F)F)cc3)CC2)c2cccnc12` [Compound 48, 5-((4-(4-(trifluoromethyl)benzyl)piperazin-1-yl)methyl)quinolin-8-ol] was run?
A: 1 µM

same assay, conditions: mEphB2-hEphrinA5; immobilized mouse EphB2; 50 nM soluble human EphrinA5; dissociation; relative; read-out: Relative Dissociation IC50

Q: For `Oc1c(Cl)cc(CN2CCOCC2)c2cccnc12` [Compound 4, 4-((7-chloro-8-hydroxyquinolin-1-ium-5-yl)methyl)morpholin-4-ium chloride], which IC50 is on record?
A: < 1 µM

Q: How did the IC50 turn out when `Oc1ccc(CN2CCN(Cc3ccc(C(F)(F)F)cc3)CC2)c2cccnc12` [Compound 48, 5-((4-(4-(trifluoromethyl)benzyl)piperazin-1-yl)methyl)quinolin-8-ol] was run?
A: 1 µM

molecular target: T3, EphB4-EphrinB2 (Mus musculus, UniProt P54761); assay: Octet RED384, immobilized mouse EphB4-Fc binding to mouse EB2-His; settings: mEphB4-mEphrinB2; immobilized mouse EphB4; 50 nM soluble mouse EphrinB2; association; absolute; read-out: Absolute Association IC50
T3 construct: biosensor immobilized rodent EphB1-Fc and EphB4-Fc ectodomain proteins; mouse EB2-His residues 18-232; purchased R&D Systems (EphB-Fc); Sino Biologicals (EphrinB-His)
T3 sequence (P54761 16-539 limits assumed): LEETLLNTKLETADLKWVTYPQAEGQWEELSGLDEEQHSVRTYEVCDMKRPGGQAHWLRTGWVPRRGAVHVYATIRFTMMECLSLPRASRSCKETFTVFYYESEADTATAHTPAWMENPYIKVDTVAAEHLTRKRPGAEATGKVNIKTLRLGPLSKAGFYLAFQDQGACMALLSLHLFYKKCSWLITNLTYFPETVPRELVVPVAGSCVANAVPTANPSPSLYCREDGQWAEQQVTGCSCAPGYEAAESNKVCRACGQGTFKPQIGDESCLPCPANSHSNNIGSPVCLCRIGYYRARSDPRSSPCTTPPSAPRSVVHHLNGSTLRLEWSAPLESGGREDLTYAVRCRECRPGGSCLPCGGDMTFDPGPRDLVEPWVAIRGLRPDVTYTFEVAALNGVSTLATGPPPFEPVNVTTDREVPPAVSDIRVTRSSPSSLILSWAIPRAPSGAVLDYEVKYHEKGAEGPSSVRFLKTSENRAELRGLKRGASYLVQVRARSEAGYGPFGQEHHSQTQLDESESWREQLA
Protocol: […] Association time was for 400 sec and dissociation time was for 500 sec. Binding assays were conducted in PBS containing 0.05% Tween-20 and 1% DMSO.

Q: Which IC50 does the source give for `Oc1c(Cl)cc(CN2CCOCC2)c2cccnc12` [Compound 4, 4-((7-chloro-8-hydroxyquinolin-1-ium-5-yl)methyl)morpholin-4-ium chloride] here?
A: > 10 µM

Q: `Oc1ccc(CN2CCOCC2)c2cccnc12` [Compound 1, 5-(morpholinomethyl)quinolin-8-ol] was tested. Which IC50 did it give?
A: 100 µM

same assay, conditions: mEphB4-mEphrinB2; immobilized mouse EphB4; 50 nM soluble mouse EphrinB2; association; relative; read-out: Relative Association IC50

Q: Which IC50 does the source give for `Oc1c(Cl)cc(CN2CCOCC2)c2cccnc12` [Compound 4, 4-((7-chloro-8-hydroxyquinolin-1-ium-5-yl)methyl)morpholin-4-ium chloride] here?
A: 3.19 µM

Q: Which IC50 does the source give for `Oc1ccc(CN2CCN(Cc3ccc(C(F)(F)F)cc3)CC2)c2cccnc12` [Compound 48, 5-((4-(4-(trifluoromethyl)benzyl)piperazin-1-yl)methyl)quinolin-8-ol] here?
A: 8.24 µM

Q: Which IC50 does the source give for `Oc1ccc(CN2CCOCC2)c2cccnc12` [Compound 1, 5-(morpholinomethyl)quinolin-8-ol] here?
A: 100 µM

same assay, conditions: mEphB4-mEphrinB2; immobilized mouse EphB4; 50 nM soluble mouse EphrinB2; dissociation; absolute; read-out: Absolute Dissociation IC50

Q: `Oc1c(Cl)cc(CN2CCOCC2)c2cccnc12` [Compound 4, 4-((7-chloro-8-hydroxyquinolin-1-ium-5-yl)methyl)morpholin-4-ium chloride] was tested. Which IC50 did it give?
A: 0.84 µM

Q: How did the IC50 turn out when `Oc1ccc(CN2CCOCC2)c2cccnc12` [Compound 1, 5-(morpholinomethyl)quinolin-8-ol] was run?
A: 100 µM

same assay, conditions: mEphB4-mEphrinB2; immobilized mouse EphB4; 50 nM soluble mouse EphrinB2; dissociation; relative; read-out: Relative Dissociation IC50

Q: `Oc1c(Cl)cc(CN2CCOCC2)c2cccnc12` [Compound 4, 4-((7-chloro-8-hydroxyquinolin-1-ium-5-yl)methyl)morpholin-4-ium chloride] was tested. Which IC50 did it give?
A: 0.53 µM

Q: How did the IC50 turn out when `Oc1ccc(CN2CCN(Cc3ccc(C(F)(F)F)cc3)CC2)c2cccnc12` [Compound 48, 5-((4-(4-(trifluoromethyl)benzyl)piperazin-1-yl)methyl)quinolin-8-ol] was run?
A: 1.89 µM
